Source: PubChem BioAssay AID248 (DTP/NCI, 2004)
“And” between values parts separate entries of the source, which are not always exact repeats. Equal values may be shown once. Toxic doses and inconclusive results are not listed.

Test system: L1210 leukemia ip in BDF1 mice, survival T/C
Experiment: NCI In Vivo Anticancer Drug Screen. Data for tumor model L1210 Leukemia (intraperitoneal) in B6D2F1 (BDF1) mice
Settings: endpoint: mean survival time, higher = longer survival
Summary of the method: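 Each compound was tested against a transplantable tumor grown in mice. The endpoint was survival, with treated animals benchmarked against vehicle controls as a simple ratio.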

[1] = dose: 100.0 mg/kg/injection, schedule: Q04DX003 (ip), vehicle: saline with Tween-80
[2] = dose: 200.0 mg/kg/injection, schedule: Q04DX003 (ip), vehicle: saline with Tween-80
[3] = dose: 400.0 mg/kg/injection, schedule: Q04DX003 (ip), vehicle: saline with Tween-80
[4] = dose: 100.0 mg/kg/injection, schedule: Q01DX001 (ip), vehicle: saline
[5] = dose: 200.0 mg/kg/injection, schedule: Q01DX001 (ip), vehicle: saline
[6] = dose: 100.0 mg/kg/injection, schedule: Q04DX002 (ip), vehicle: saline
[7] = dose: 400.0 mg/kg/injection, schedule: Q01DX001 (ip), vehicle: saline
[8] = dose: 50.0 mg/kg/injection, schedule: Q01DX009 (ip), vehicle: Klucel (hydroxypropylcellulose) (HPC)
[9] = dose: 100.0 mg/kg/injection, schedule: Q01DX009 (ip), vehicle: Klucel (hydroxypropylcellulose) (HPC)
[10] = dose: 100.0 mg/kg/injection, schedule: Q04DX003 (ip), vehicle: Klucel (hydroxypropylcellulose) (HPC)
[11] = dose: 200.0 mg/kg/injection, schedule: Q01DX009 (ip), vehicle: Klucel (hydroxypropylcellulose) (HPC)
[12] = dose: 200.0 mg/kg/injection, schedule: Q04DX003 (ip), vehicle: Klucel (hydroxypropylcellulose) (HPC)
[13] = dose: 400.0 mg/kg/injection, schedule: Q01DX009 (ip), vehicle: Klucel (hydroxypropylcellulose) (HPC)
[14] = dose: 400.0 mg/kg/injection, schedule: Q04DX003 (ip), vehicle: Klucel (hydroxypropylcellulose) (HPC)
[15] = dose: 100.0 mg/kg/injection, schedule: Q04DX002 (ip), vehicle: saline with Tween-80
[16] = dose: 200.0 mg/kg/injection, schedule: Q04DX002 (ip), vehicle: saline with Tween-80
[17] = dose: 400.0 mg/kg/injection, schedule: Q04DX002 (ip), vehicle: saline with Tween-80
[18] = dose: 100.0 mg/kg/injection, schedule: Q01DX009 (ip), vehicle: saline with Tween-80
[19] = dose: 200.0 mg/kg/injection, schedule: Q01DX009 (ip), vehicle: saline with Tween-80
[20] = dose: 400.0 mg/kg/injection, schedule: Q01DX009 (ip), vehicle: saline with Tween-80

Compound: Cc1cc(-c2ccc(NC(=O)Nc3cccc(C4=NCCN4)c3)c(C)c2)ccc1NC(=O)Nc1cccc(C2=NCCN2)c1
- T/C (dose: 31.2 mg/kg/injection, schedule: Q01DX Z (ip), vehicle: methylcellulose (MC)): 97 % of control
- T/C (dose: 62.5 mg/kg/injection, schedule: Q01DX Z (ip), vehicle: methylcellulose (MC)): 103 % of control
- T/C (dose: 125.0 mg/kg/injection, schedule: Q01DX Z (ip), vehicle: methylcellulose (MC)): 103 % of control

Compound: CC(C)C(C(=O)c1ccccc1)C(Cl)c1ccccc1 (stereo unspecified)
- T/C (dose: 100.0 mg/kg/injection, schedule: Q04DX003 (ip), vehicle: other): 94 % of control
- T/C (dose: 200.0 mg/kg/injection, schedule: Q04DX003 (ip), vehicle: other): 102 % of control
- T/C (dose: 400.0 mg/kg/injection, schedule: Q04DX003 (ip), vehicle: other): 93 % of control

Compound: CSCCNC(=O)NS(=O)(=O)c1ccc(C)cc1
- T/C [1]: 96 % of control
- T/C [2]: 97 % of control
- T/C [3]: 97 % of control

Compound: OCC(c1ccccc1)[P+](c1ccccc1)(c1ccccc1)c1ccccc1 (stereo unspecified)
- T/C (dose: 5.0 mg/kg/injection, schedule: Q01DX001 (ip), vehicle: saline): 94 % of control
- T/C (dose: 10.0 mg/kg/injection, schedule: Q01DX001 (ip), vehicle: saline): 97 % of control
- T/C (dose: 20.0 mg/kg/injection, schedule: Q01DX001 (ip), vehicle: saline): 103 % of control
- T/C (dose: 40.0 mg/kg/injection, schedule: Q01DX001 (ip), vehicle: saline): 97 % of control
- T/C (dose: 80.0 mg/kg/injection, schedule: Q01DX001 (ip), vehicle: saline): 97 % of control

Compound: O=C1c2ccccc2C(=O)c2c1ccc1c2[nH]c2ccccc21
- T/C (dose: 100.0 mg/kg/injection, schedule: Q01DX001 (ip), vehicle: carboxymethylcellulose (CMC)): 86 % of control
- T/C (dose: 200.0 mg/kg/injection, schedule: Q01DX001 (ip), vehicle: carboxymethylcellulose (CMC)): 91 % of control
- T/C (dose: 400.0 mg/kg/injection, schedule: Q01DX001 (ip), vehicle: carboxymethylcellulose (CMC)): 89 % of control

Compound: CC(C)(C)OC(=O)C(=O)C(OC(C)(C)C)C(=O)OC(C)(C)C (stereo unspecified)
- T/C [4]: 98 % of control
- T/C [5]: 102 % of control

Compound: C=C1CCOC1=O
- T/C [6]: 104 % of control
- T/C (dose: 200.0 mg/kg/injection, schedule: Q04DX002 (ip), vehicle: saline): 108 % of control
- T/C (dose: 400.0 mg/kg/injection, schedule: Q04DX002 (ip), vehicle: saline): 106 % of control

Compound: Cc1ccc(S(=O)(=O)OCC2OC(C)(C)OC3C(COS(=O)(=O)c4ccc(C)cc4)OC(C)(C)OC23)cc1 (stereo unspecified)
- T/C [4]: 99 % of control
- T/C [5]: 89 % of control
- T/C [7]: 99 % of control

Compound: c1ccc2c(C3=NCCN3)ccc(C3=NCCN3)c2c1
- T/C (dose: 15.0 mg/kg/injection, schedule: Q01DX Z (ip), vehicle: saline): 100 % of control
- T/C (dose: 30.0 mg/kg/injection, schedule: Q01DX Z (ip), vehicle: saline): 101 % of control

Compound: COC1OC(CO)C(O)C(NC(=O)NCCCl)C1O (stereo unspecified)
- T/C [4]: 113 % of control
- T/C [5]: 111 % of control
- T/C [7]: 103 % of control

Compound: CC1(C)NC(=O)C2CC21C (stereo unspecified)
- T/C [6]: 91 % of control

Compound: COc1cc(O)c2c(c1)Cc1cc(C)cc(O)c1C2=O
- T/C (dose: 12.5 mg/kg/injection, schedule: Q04DX002 (ip), vehicle: Klucel (hydroxypropylcellulose) (HPC)): 93 % of control
- T/C (dose: 25.0 mg/kg/injection, schedule: Q04DX002 (ip), vehicle: Klucel (hydroxypropylcellulose) (HPC)): 93 % of control

Compound: O=C(O)C(CSC(c1ccccc1)(c1ccccc1)c1ccccc1)N=Cc1cccs1 (stereo unspecified)
- T/C (dose: 22.0 mg/kg/injection, schedule: Q01DX009 (ip), vehicle: saline): 123 % of control
- T/C (dose: 66.0 mg/kg/injection, schedule: Q01DX009 (ip), vehicle: saline with Tween-80): 109 % of control
- T/C (dose: 66.0 mg/kg/injection, schedule: Q01DX009 (ip), vehicle: saline): 152 % of control and 214 % of control
- T/C (dose: 150.0 mg/kg/injection, schedule: Q01DX009 (ip), vehicle: saline with Tween-80): 98 % of control
- T/C (dose: 150.0 mg/kg/injection, schedule: Q01DX009 (ip), vehicle: saline): 104 % of control

Compound: Cc1ccc(C)c(CN(C)C)c1O
- T/C (dose: 6.0 mg/kg/injection, schedule: Q04DX003 (ip), vehicle: Klucel (hydroxypropylcellulose) (HPC)): 98 % of control
- T/C (dose: 12.5 mg/kg/injection, schedule: Q04DX003 (ip), vehicle: Klucel (hydroxypropylcellulose) (HPC)): 96 % of control
- T/C (dose: 25.0 mg/kg/injection, schedule: Q04DX003 (ip), vehicle: Klucel (hydroxypropylcellulose) (HPC)): 89 % of control
- T/C [8]: 97 % of control
- T/C (dose: 50.0 mg/kg/injection, schedule: Q04DX003 (ip), vehicle: Klucel (hydroxypropylcellulose) (HPC)): 107 % of control
- T/C [9]: 89 % of control
- T/C [10]: 100 % of control and 89 % of control

Compound: OCC1CCCCC1CO (stereo unspecified)
- T/C (dose: 100.0 mg/kg/injection, schedule: Q04DX002 (ip), vehicle: Klucel (hydroxypropylcellulose) (HPC)): 113 % of control
- T/C (dose: 200.0 mg/kg/injection, schedule: Q04DX002 (ip), vehicle: Klucel (hydroxypropylcellulose) (HPC)): 107 % of control
- T/C (dose: 400.0 mg/kg/injection, schedule: Q04DX002 (ip), vehicle: Klucel (hydroxypropylcellulose) (HPC)): 103 % of control

Compound: CCCCCCCCCCOc1ccccc1C(=O)NCCN1CCCC1
- T/C (dose: 15.0 mg/kg/injection, schedule: Q01DX015 (ip), vehicle: saline): 88 % of control
- T/C (dose: 30.0 mg/kg/injection, schedule: Q01DX015 (ip), vehicle: saline): 91 % of control
- T/C (dose: 60.0 mg/kg/injection, schedule: Q01DX015 (ip), vehicle: saline): 91 % of control
- T/C (dose: 120.0 mg/kg/injection, schedule: Q01DX015 (ip), vehicle: saline): 88 % of control

Compound: CC(=O)OC1c2ccccc2C(=O)C1(OC(C)=O)c1ccccc1 (stereo unspecified)
- T/C [9]: 101 % of control
- T/C [10]: 97 % of control
- T/C [11]: 107 % of control
- T/C [12]: 100 % of control
- T/C [13]: 101 % of control
- T/C [14]: 102 % of control

Compound: O=C1c2cccc3cc([N+](=O)[O-])cc(c23)C(=O)N1Cc1ccco1
- T/C [15]: 95 % of control
- T/C [16]: 120 % of control
- T/C [17]: 88 % of control

Compound: COc1ccc(CCNC(=O)c2ccccc2N)cc1OC
- T/C (dose: 100.0 mg/kg/injection, schedule: Q01DX001 (ip), vehicle: saline with Tween-80): 97 % of control
- T/C [18]: 90 % of control and 91 % of control
- T/C [15]: 98 % of control
- T/C [1]: 105 % of control
- T/C (dose: 200.0 mg/kg/injection, schedule: Q01DX001 (ip), vehicle: saline with Tween-80): 98 % of control
- T/C [19]: 95 % of control and 109 % of control
- T/C [16]: 98 % of control
- T/C [2]: 92 % of control
- T/C (dose: 400.0 mg/kg/injection, schedule: Q01DX001 (ip), vehicle: saline with Tween-80): 106 % of control
- T/C [20]: 90 % of control and 91 % of control
- T/C [17]: 95 % of control
- T/C [3]: 95 % of control

Compound: CN1C(=S)SC(c2ccccc2)N(C)C1c1ccccc1 (stereo unspecified)
- T/C [8]: 101 % of control
- T/C [9]: 98 % of control
- T/C [10]: 89 % of control
- T/C [11]: 106 % of control
- T/C [12]: 89 % of control
- T/C [14]: 86 % of control

Compound: O=C1NCN(c2ccccc2)C12CCN(CCCS(=O)(=O)c1ccccc1)CC2
- T/C (dose: 100.0 mg/kg/injection, schedule: Q01DX001 (ip), vehicle: Klucel (hydroxypropylcellulose) (HPC)): 93 % of control
- T/C (dose: 200.0 mg/kg/injection, schedule: Q01DX001 (ip), vehicle: Klucel (hydroxypropylcellulose) (HPC)): 94 % of control
- T/C (dose: 400.0 mg/kg/injection, schedule: Q01DX001 (ip), vehicle: Klucel (hydroxypropylcellulose) (HPC)): 101 % of control

Compound: NCCOS(=O)(=O)O
- T/C [9]: 105 % of control
- T/C [18]: 92 % of control
- T/C [11]: 101 % of control
- T/C [19]: 108 % of control
- T/C [13]: 100 % of control
- T/C [20]: 99 % of control

Compound: CCCCOc1ccc(C(=O)N/N=C\c2cc(OC)c(OC)c(OC)c2)cc1
- T/C [10]: 94 % of control
- T/C [12]: 94 % of control
- T/C [14]: 91 % of control

Compound: S=C(S)N1CCC(CC2CCN(C(=S)S)CC2)CC1
- T/C [18]: 98 % of control
- T/C [1]: 102 % of control
- T/C [19]: 93 % of control
- T/C [2]: 96 % of control
- T/C [3]: 86 % of control
